In patent US20220193241A1, “AGENT TARGETING DOUBLE-MEMBRANE ORGANELLE DNA” (CHIBA-PREFECTURE, priority 2019, published 2022):
Blank lines part the entries; values can stand above or below the molecule they belong to.

Columns and labels:
3243G Low cells [1] = experiment: Ratio between normal mtDNA and mutant mtDNA by PCR-RFLP; type: cell-based, human; conditions: 1 μM and 5 μM, 48- or 63-day treatment
Protocol: (§1) The 3243G Low cells were inoculated at 2×10^4 cells/well to a 35 mm dish (Falcon), cultured for 24 hours, and then treated with CCC019-TPP (final concentration: 1 μM and 5 μM). The medium was replaced once two days, and CCC019-TPP was continuously administered. Further, 48 and 63 days later, DNA was extracted using Allprep DNA/RNA Mini Kit (QIAGEN) according to the instruction manual. The yield of the DNA thus extracted was measured using NANODROP 2000™ (Thermo Fisher Scientific). DNA samples were prepared, and PCR reaction was conducted. The primers and reaction conditions used are shown below.
(§2) The reaction conditions were as follows.
PCR products were treated with restriction enzyme ApaI as described below, and analyzed. The PCR products were purified using QIAquick PCR Purification Kit (QIAGEN) according to the instruction manual. After the purification, the yield of DNA was measured using NANODROP 2000c (Thermo Fisher Scientific). After the measurement, reaction products amplified in PCR System 9700 (Applied Biosystems, USA) GeneAmp(R) were treated with restriction enzyme Apal at 37° C. for 5 hours. After the completion of reaction, 15 ng of samples was electrophoresed on 2% agarose gel and then stained with ethidium bromide to detect bands of the PCR products. The bands were quantified with analytical software (Image J). […]

3243G Low cells [2] = experiment: Total mitochondrial DNA copy number by PCR of COII gene; type: cell-based, human; conditions: 1 μM and 5 μM, 48- or 63-day treatment
Protocol: as §1, with “dish (Falcon, USA),” for “dish (Falcon),”, “Kit (QIAGEN, Germany)” for “Kit (QIAGEN)”, “NANODROP 2000c” for “NANODROP 2000™”, “reaction and analysis were” for “reaction was”
as §2
After the completion of PCR reaction, PCR products were electrophoresed on 2% agarose gel and then stained with ethidium bromide to detect bands of the PCR products. The bands were quantified with analytical software (Image J).
In order to predict the total copy number of mtDNA in the 3243G Low cells treated with CCC019-TPP for 48 or 63 days, COII gene constituting mitochondrial respiratory chain complex IV was subjected to PCR.

HeLa cells = experiment: WST cell proliferation assay of library compounds; type: cell-based; conditions: Homo sapiens, 120 h, 5 days
Protocol: (§3) This compound can recognize the T4216C mutation of mitochondrial ND1 gene, and a uterine cervical cancer cell line C33A has this mutation. Cell proliferation assay with wild-type HeLa cells, which is also a uterine cervical cancer cell line, was conducted in the same manner as in Example 1. 1000 cells were inoculated to a 96-well plate, and CCC1283-TPP was administered at 0.5, 1, 5, 10, and 20 μM. 5 days later, WST assay was conducted.
as §3, with “CCCh531-TPP” for “CCC1283-TPP”
(§4) Compound CCCh560-TPP with a decacyclic structure targeting the A8860G polymorphism of mitochondrial gene ATP6 found in human populations, not acquired mitochondrial mutations in somatic cells, was studied for whether the suppression of cell proliferation was also found by 5-day treatment with the compound for the mitochondrial DNA polymorphism in cancer cell lines C33A, HeLa, Siha, Caski, and ME180 having this polymorphism in homoplasmy and human nontumor skin-derived fibroblast HDF cells. For this purpose, cell proliferation assay was conducted in the same manner as in Example 1. 1000 cells were inoculated to a 96-well plate, and CCCh560-TPP was administered at 0.5, 1, 5, 10, and 20 μM. 5 days later, WST assay was conducted.

C33A = experiment: WST cell proliferation assay of library compounds; type: cell-based; conditions: Homo sapiens, C-33-A, 120 h, 5 days
Protocol: as §3
as §3, with “CCCh531-TPP” for “CCC1283-TPP”
as §4

A549 cells [3] = experiment: Synthetic lethality: cell morphology with CCC021-TPP and ABT-263; type: cell-based; conditions: each used alone: 20 μM CCC021-TPP, 10 μM ABT-263; days 2 and 4
From the text: Since the suppression of cell death in the cellular senescence of the A549 cells was presumably due to the BCL pathway, it was believed that the apoptosis of cells whose cellular senescence was evoked by CCC021-TPP could be induced by combined use with ABT-263 (Cayman Chemical Company) serving as a senolytic drug and a BCL pathway inhibitor. Thus, the possibility of inducing the cell death of senescent cells by CCC021-TPP treatment and combined use with the BCL2/BCL-XL inhibitor ABT-263 was observed under an optical microscope to observe change in cell morphology. Five hundred A549 cells were inoculated to a 96-well plate, cultured for 24 hours, and then observed over time under an optical microscope either without administration or after administration of 20 μM CCC021-TPP and 10 μM ABT-263 each used alone or used concurrently, and cell morphology was photographed on days 2 and 4.

[4] = Skin penetrability confirmation experiment (anti-TPP immunohistochemical staining); type: in vivo, mice ICR; conditions: 18 hours
Protocol: Outbred mice ICR were purchased from Oriental Yeast Co., Ltd. The experiment was conducted by the administration of linear-chain PIP-TPP (CCC149-TPP) having a molecular weight of 1274.7 to the mouse back. The back skin of each 5-week-old ICR mouse was shaved. After confirmation that the hair growth cycle was not reached, DMSO containing no PIP-TPP, and solutions of PIP-TPP (dissolved in DMSO, dissolved in 95% DMSO/5% laurocapram (transdermal absorption promoter) and dissolved in 95% DMSO/5% laurocapram 24 hours after stratum corneum removal) adjusted so as to attain 30 mg/cm^2 were applied to 4 locations, respectively, of the back as shown in FIG. 28 at the age of 6 weeks. 18 hours later, the mouse was euthanized, and skin tissues were obtained and fixed in 4% paraformaldehyde. Then, paraffin blocks were prepared and co-stained by immunohistochemical staining with an anti-TPP antibody and DAPI staining of the nucleus to test the skin penetrability of the drug into cells and subcutaneous tissues.

3243G High cells = experiment: Mitochondrial autophagy (LC3 / cytochrome C immunostaining); type: cell-based, human; conditions: 100 nM, 52 hours after treatment
Protocol: In order to study whether the decrease in the number of mutant mtDNA by PIP-TPP was caused by mitochondrial autophagy reaction, the following experiment was conducted. The mtDNA mutation cell line 3243G High cells were inoculated at 2×10^4 cells/dish to a 35 mm glass base dish (IWAKI), cultured for 24 hours, and then treated with the compound (final concentration: 100 nM). 52 hours after treatment, the cells were fixed with 4% paraformaldehyde (PFA)/PBS at room temperature for 30 minutes. The cells thus fixed were washed with PBS and blocked with 10% FBS/0.1% Triton X100/TBS (TBST) for 10 minutes. TBS is a mixed solution of sodium chloride (final concentration: […]) and Tris (pH 7.4) (final concentration: […]). After the completion of blocking, the cells were reacted overnight at 4° C. with primary antibodies diluted with TBST. The primary antibodies used were a rabbit anti-LC3 antibody (Cell Signaling Technology, Inc.) diluted at 1:200, and a mouse anti-cytochrome C antibody (Thermo Fisher Scientific, USA) diluted at 1:500. After the completion of reaction with the primary antibodies, the cells were washed three times with TBS and reacted for 15 minutes with secondary antibodies diluted with TBST, i.e., Goat anti Rabbit Oregon Green 488 (Invitrogen) diluted at 1:1000 and Goat anti Mouse Alexa Fluor 647 (Invitrogen) diluted at 1:1000. […]

A549 cells [5] = experiment: Synthetic lethality: cell morphology with CCC021-TPP and ABT-199 or A1155463; type: cell-based; conditions: single administration: 20 μM CCC021-TPP, 10 μM ABT-199, 10 μM A1155463; 4 days
Protocol: It was confirmed with the BCL2- and BCL-XL-specific inhibitor that the suppression of cell death in the cellular senescence of the A549 cells was presumably due to the BCL pathway. The type of BCL pathway inhibition, combined use of which could induce cell death (apoptosis) in the senescent cells of the A549 cells was studied. Five hundred A549 cells were inoculated to a 96-well plate and cultured for 24 hours. Then, change in cell morphology was photographed under an optical microscope either without administration (i.e., after DMSO treatment) or 4 days after treatment with 20 μM CCC021-TPP and 10 μM BCL2 inhibitor ABT-199 (compound venetoclax of No. 33 in FIG. 55-10) or 10 μM BCL-XL inhibitor A1155463 (compound of No. 16 in FIG. 55-6) each alone, or treatment by combined use of the same concentration of CCC021-TPP with the same concentration of ABT-199 or A1155463.

SMILES: CN(C)CCCNC(=O)CCNC(=O)c1nc(NC(=O)c2nc(NC(=O)CCNC(=O)c3cc(NC(=O)c4nc(NC(=O)c5nc(NC(=O)CCCNC(=O)c6cc(NC(=O)c7cc(NC(=O)c8nc(NC(=O)CCNC(=O)c9cc(NC(=O)c%10cc(NC(=O)CCNC(=O)CCCC[P+](c%11ccccc%11)(c%11ccccc%11)c%11ccccc%11)cn%10C)cn9C)cn8C)cn7C)cn6C)cn5C)cn4C)cn3C)cn2C)cn1C [CCC019-TPP]
ratio between normal mtDNA and mutant mtDNA (3243G Low cells [1]): tendency to increase the proportion of wild-type mitochondrial DNA and decrease the proportion of mutant mitochondrial DNA
total copy number of mtDNA (3243G Low cells [2]): tendency to increase the total copy number of mtDNA

IC50 (HeLa cells): 11.8 µM
SMILES: CN(C)CCCNC(=O)CCNC(=O)c1cc(NC(=O)c2cc(NC(=O)c3nc(NC(=O)CCNC(=O)c4cc(NC(=O)c5cc(NC(=O)CCCNC(=O)c6nc(NC(=O)c7cc(NC(=O)CCNC(=O)c8cc(NC(=O)c9cc(NC(=O)c%10nc(NC(=O)CCNC(=O)CC[P+](c%11ccccc%11)(c%11ccccc%11)c%11ccccc%11)cn%10C)cn9C)cn8C)cn7C)cn6C)cn5C)cn4C)cn3C)cn2C)cn1C [CCCh531-TPP]
IC50 (C33A): 3.34 µM

SMILES: CC1(C)CCC(c2ccc(Cl)cc2)=C(CN2CCN(c3ccc(C(=O)NS(=O)(=O)c4ccc(N[C@H](CCN5CCOCC5)CSc5ccccc5)c(S(=O)(=O)C(F)(F)F)c4)cc3)CC2)C1 [ABT-263, Navitoclax (ABT-263), reference compound]
cells that underwent apoptosis (morphology) (A549 cells [3]): not detected

skin penetrability (anti-TPP stain) ([4]; applied to back skin, dissolved in DMSO): present in skin basement membrane cells
SMILES: CN(C)CCCNC(=O)CCNC(=O)c1cc(NC(=O)c2nc(NC(=O)CCNC(=O)c3nc(NC(=O)c4cc(NC(=O)c5nc(NC(=O)CCNC(=O)CCCC[P+](c6ccccc6)(c6ccccc6)c6ccccc6)cn5C)cn4C)cn3C)cn2C)cn1C [CCC149-TPP]
skin penetrability (anti-TPP stain) ([4]; 95% DMSO/5% laurocapram (transdermal absorption promoter)): stain of TPP was found in the perikaryon of subcutaneous tissues
skin penetrability (anti-TPP stain) ([4]; stratum corneum removal and 95% DMSO/5% laurocapram): more clearly found into the subcutaneous tissues and muscular coat

SMILES: CC(=O)Nc1cn(C)c(C(=O)Nc2cn(C)c(C(=O)Nc3cn(C)c(C(=O)NCCC(=O)Nc4cc(C(=O)Nc5cc(C(=O)NCCCC(=O)Nc6cn(C)c(C(=O)Nc7cn(C)c(C(=O)Nc8cn(C)c(C(=O)NCCC(=O)Nc9cc(C(=O)Nc%10cc(C(=O)NCCC(=O)NCCCN(C)C)n(C)c%10)n(C)c9)n8)n7)n6)n(C)c5)n(C)c4)n3)n2)n1 [CCC018-TPP]
colocalization of autophagic marker LC3 with mitochondria (mitophagy) (3243G High cells): colocalization of the autophagic effect with mitochondria was clearly observed

SMILES: CN(C)CC#Cc1ccc(OCCCc2sc(N3CCc4cccc(C(=O)Nc5nc6ccccc6s5)c4C3)nc2C(=O)O)c(F)c1 [A1155463, reference compound]
cell death (morphology) (A549 cells [5]): Any finding indicating cell death was not obtained
